From US10294217B2, “Fluoroindole derivatives as muscarinic M1 receptor positive allosteric modulators” (Suven Life Sciences Limited, priority 2015, dated 2019) come the findings set out here.

Assay [1] relates to Male Wistar rats. Description: Object recognition task model - scopolamine challenge. It is filed as in vivo. Particulars: p.o.; for Exploration time Familiar object / Exploration time Novel object: mean ± S.E.M, choice trial 3 minutes after T1. As for the experimental part: Object Recognition Task Model—Scopolamine challenge
The cognition enhancing properties of compounds of this invention were estimated by using this model.
Male Wistar rats (8-10 weeks old) were used as experimental animals. Four animals were housed in each cage. Animals were kept on 20% food deprivation from a day prior to experimentation. Water was provided ad libitum throughout the experiment. Animals were maintained on a 12 hours light/dark cycle in temperature and humidity controlled room. The experiment was carried out in an open field made up of acrylic. Rats were habituated to individual arenas (open field) for 1 hour in the absence of any objects on day 1.
Rats received vehicle or vehicle and scopolamine or compound of the formula (I) and scopolamine, before the familiar (T1). During the familiarization phase, (T1), the rats were placed individually in the arena for 3 minutes, in which two identical objects (a1 and a2) were positioned 10 cm from the wall. 3 minutes after T1, trial for memory test was performed. The same rats were placed in the same arena as they were placed in T1 trial. During the choice phase (T2) rats were allowed to explore the arena for 3 minutes in presence of a copy of familiar object (a3) and one novel object (b). During the T1 and T2 trial, explorations of each object (defined as sniffing, licking, chewing or having moving vibrissae whilst directing the nose towards the object at a distance of less than 1 cm) were recorded using stopwatch. • T1 is the total time spent exploring the familiar objects (a1+a2). • T2 is the total time spent exploring the familiar object and novel object (a3+b). • Discriminative index=Time spent with novel object/(time spent with novel and familiar object).

Assay [2] concerns cerebral blood flow in the frontal cortex. The experiment in a line: Modulation of cerebral blood flow in frontal cortex. It counts as in vivo. Conditions: anaesthetized rats, intravenous, Laser Doppler, FIG. 2. As for the experimental part: Modulation of Cerebral Blood Flow in Frontal Cortex:
The effect of test compound on modulation of cerebral blood flow was evaluated using rats.
Rats were acclimatized to the laboratory environment for at least 7 days. Rats (300-350 grams) were housed in a group of four in a controlled environment (Temp=21±3° C.; Humidity=30-70%) and maintained on a 12-hour light/dark cycle with lights on at 07:00 AM. Food and water was provided ad libitum.
Rats were anaesthetized with 12% urethane (i.p.). Animal's body core temperature was maintained at 37° C. via heating pad and rectal temperature probe. A small incision was made at one of the ventral side of the hind limb and the femoral vein was cannulated with PE10 tubing for drug application. Then animal was placed into a stereotaxic frame and a midline incision was made to expose the skull. A burr hole was drilled over the frontal cortex (stereotaxic coordinates 1 mm anterior and 4 mm lateral to bregma). Oxygen was supplied through the nose cone of the seterotaxic apparatus which was connected to the controlled gaseous supplier with a flow of 200 mL/minute. Laser Doppler probe (AD Instruments Inc) was placed over the hole to monitor cerebral blood flow. […] Data obtained was calculated as percent increase relative to resting basal blood flow level. […]

Take `Cl.O=C(N[C@H]1CCNC[C@H]1F)c1cn(Cc2ccnc(F)c2)c2c(F)ccc(F)c12` (single isomer, unassigned; isomer-i) [Example 22, Cis-N-(3-Fluoropiperidin-4-yl)-1-(2-fluoropyridin-4-ylmethyl)-4,7-difluoro-1H-indole-3-carboxamide hydrochloride (Isomer-I)]: in assay [1] (1 mg/kg), the Inference entry was “Active”, the “Exploration time Familiar object” value came out at 21.34 ± 3.65 s and the “Exploration time Novel object” value was 29.70 ± 1.72 s.

On to `Cn1cc(Cn2cc(C(=O)N[C@H]3CCCC[C@@H]3O)c3c(F)cccc32)cn1` [Example 1, N-[(1S,2S)-2-Hydroxycyclohexyl]-1-(1-methyl-1H-pyrazol-4-ylmethyl)-4-fluoro-1H-indole-3-carboxamide], for which, in assay [1] (0.3 mg/kg), the Inference entry is listed as “Active”, the “Exploration time Familiar object” value worked out at 7.54 ± 1.93 s and the “Exploration time Novel object” value was found to be 13.07 ± 1.79 s. Also, in assay [2], the cerebral blood flow entry is reported as “significantly increased the cerebral blood flow”.

On to `O=C(N[C@H]1CCCC[C@@H]1O)c1cn(Cc2ccnc(Cl)c2)c2cccc(F)c12` [Example 2, N-[(1S,2S)-2-Hydroxycyclohexyl]-1-(2-chloropyridin-4-ylmethyl)-4-fluoro-1H-indole-3-carboxamide], for which, in assay [1] (0.3 mg/kg), the Inference result is recorded as “Active”, the “Exploration time Familiar object” value was 14.29 ± 1.92 s and the “Exploration time Novel object” value was determined as 20.93 ± 2.89 s.

Consider `Cn1cc(Cn2cc(C(=O)N[C@H]3CCCC[C@@H]3O)c3c(F)ccc(F)c32)cn1` [Example 5, N-[(1S,2S)-2-Hydroxycyclohexyl]-1-(1-methyl-1H-pyrazol-4-ylmethyl)-4,7-difluoro-1H-indole-3-carboxamide], for which, in assay [1] (1 mg/kg), the Inference result is recorded as “Active”, the “Exploration time Familiar object” value came out at 13.61 ± 1.79 s and the “Exploration time Novel object” value stood at 25.72 ± 3.67 s.
